Data taken from BindingDB's records for patent US20250214967 (Berrybio (Shanghai), 2025).

Target: Focal adhesion kinase 1 (Homo sapiens, UniProt Q05397)
Assay: FAK Kinase Assay
Method: The inhibitory activity of a compound against FAK was determined in a buffer containing 5 mM HEPES, pH 7.5, 0.01% Triton, 0.5 mM EGTA, and 0.01% BRIJ™-35 in a 384-well assay plate. The assay was carried out in the presence of the FAK at 1 nM and ATP at 6.8 μM using fluorescein-polyGT (0.2 μM) as an FAK substrate. Each assay mixture was incubated at room temperature for 30 min. A LANTHASCREEN Tb-PY20 antibody was added to each well to stop the enzymatic reaction. The plate was incubated at room temperature for 60 min before reading on an ENVISION using TR-FRET module (excitation at 340 nm and emission at 520 nm and 495 nm).

Focal adhesion kinase 1, sequence (Q05397 whole entry): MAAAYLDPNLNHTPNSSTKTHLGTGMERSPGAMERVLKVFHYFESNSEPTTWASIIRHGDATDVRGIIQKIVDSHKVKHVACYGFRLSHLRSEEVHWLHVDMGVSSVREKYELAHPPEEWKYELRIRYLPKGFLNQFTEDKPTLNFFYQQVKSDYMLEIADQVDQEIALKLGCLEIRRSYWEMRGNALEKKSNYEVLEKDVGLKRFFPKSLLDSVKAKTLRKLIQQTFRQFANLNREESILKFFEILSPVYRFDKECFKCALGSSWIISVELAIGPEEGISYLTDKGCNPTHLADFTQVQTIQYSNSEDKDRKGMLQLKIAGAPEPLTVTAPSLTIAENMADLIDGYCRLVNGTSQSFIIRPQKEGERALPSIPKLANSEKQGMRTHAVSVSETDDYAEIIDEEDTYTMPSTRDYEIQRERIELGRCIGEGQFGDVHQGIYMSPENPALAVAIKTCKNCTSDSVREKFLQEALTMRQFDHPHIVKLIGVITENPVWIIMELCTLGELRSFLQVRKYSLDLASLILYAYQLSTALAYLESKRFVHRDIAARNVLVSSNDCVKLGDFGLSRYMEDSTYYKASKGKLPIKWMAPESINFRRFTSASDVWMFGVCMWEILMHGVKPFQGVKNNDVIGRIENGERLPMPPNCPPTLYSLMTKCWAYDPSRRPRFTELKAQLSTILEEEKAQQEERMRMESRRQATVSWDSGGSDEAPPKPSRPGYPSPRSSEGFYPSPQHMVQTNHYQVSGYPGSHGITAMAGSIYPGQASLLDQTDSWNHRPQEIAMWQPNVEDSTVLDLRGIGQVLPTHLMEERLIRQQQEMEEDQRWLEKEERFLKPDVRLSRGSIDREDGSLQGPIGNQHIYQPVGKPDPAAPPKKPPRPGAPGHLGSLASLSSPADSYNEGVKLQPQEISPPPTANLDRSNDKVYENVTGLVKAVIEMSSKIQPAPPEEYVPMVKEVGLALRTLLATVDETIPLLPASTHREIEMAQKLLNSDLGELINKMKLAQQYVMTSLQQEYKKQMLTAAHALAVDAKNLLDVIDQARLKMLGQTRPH

## Cc1cc(Cc2ncc(C(F)(F)F)c(NCC3C=C(N(C)S(C)(=O)=O)CCC3)n2)ccc1OCCOCCOCCOc1ccc2c(c1)C(=O)N(C1CCC(=O)NC1=O)C2=O (stereo unspecified) [US20250214967, Compound A2]
  IC50: 3 nM
